# Assays:
# [1] = Stability of LA-RFB formulations stored at room temperature in the dark; format: physicochemical; settings: solution of RFB in DMSO without polymer, same storage
# Protocol: At predetermined time points (3, 4, 6, 9, 12, 15 months of incubation) 10 μL of formulation was diluted in 1 mL of DMSO, then further diluted at 1:1000 in DMSO for analysis by UV-vis absorbance spectrometer and HPLC to measure the drug concentration and drug degradation. As a control, RFB dissolved in DMSO (20 μg mL^−1 RFB solution) was incubated in the dark at RT.
# Mtb = settings: cited from earlier work
# [2] = human, in vivo, po, 150 mg; cited from earlier work
# [3] = RFB saturated solubility in DMSO and NMP with or without amphiphilic additives; settings: for solubility at 1 day: organic solvent or mixture, thermodynamic from solid
smiles,measurement,setting,value
"CO[C@H]1/C=C/O[C@@]2(C)Oc3c(C)c(O)c4c(c3C2=O)C2=NC3(CCN(CC(C)C)CC3)NC2=C(NC(=O)/C(C)=C\C=C\[C@H](C)[C@H](O)[C@@H](C)[C@@H](O)[C@@H](C)[C@H](OC(C)=O)[C@@H]1C)C4=O [RFB, Rifabutin]",Residual RFB after 3 months,[1],67%
same,Residual RFB after 4 months,[1],53%
same,Residual RFB after 6 months,[1],25%
same,RFB MIC,Mtb,0.064 µg/mL
same,Cmax,[2],460 ng/mL
same,Highest RFB solubility in DMSO with Kolliphor HS 15,[3]; 0.45% Kolliphor HS 15,564±7 mg RFB per mL of DMSO
same,solubility at 1 day,"[3]; Highest RFB solubility in NMP with Kolliphor HS 15, 8.8% Kolliphor HS 15",702 ± 10 mg/mL
same,solubility at 1 day,"[3]; RFB maximum solubility in DMSO, DMSO alone, room temperature, mean±SD",202 ± 22 mg/mL
same,solubility at 1 day,"[3]; RFB maximum solubility in NMP, NMP without additive, room temperature, mean±SD",148 ± 34 mg/mL

# Reference: patent US20250387381A1, “COMPOSITIONS AND METHODS FOR ENHANCED DRUG LOADING OF LONG-ACTING IN SITU FORMING IMPLANTS AND USES THEREOF” (The University of North Carolina at Chapel Hill, priority 2022, published 2025)
